Data published in US20150157634A1, “METHODS OF TREATING AND PREVENTING ALLOANTIBODY DRIVEN CHRONIC GRAFT VERSUS HOST DISEASE” (PHARMACYCLICS, INC., priority 2013, published 2015).

Key:
[1] = Weekly body weight of cGVHD mice; assay type: in vivo, mouse; conditions: BM, BM+S vehicle and BM+S ibrutinib groups; FIG. 3
Protocol: FIG. 3 exemplifies body weight of cGVHD mice in C57BL/6→B10.BR model. Bodyweight measurements for bone marrow (BM) non-cGVHD mice, BM+splenocyte (S) engrafted cGVHD irrelevant vehicle treated mice, or Ibrutinib treated BM+S engrafted mice.
(§1) Therapeutic allo-HSCT model: The C57BL/6→B10.BR model has been described previously (Srinivasan, M. et al. Blood 119, 1570-1580 (2012)). In brief, B10.BR recipients conditioned with 120 mg/kg/day I.P. cyclophosphamide (Cy) on days −3 and −2 and 8.3 Gy TBI (using a ^137Cesium irradiator) on day −1 were engrafted with 1×10^7 Thy1.2 depleted C57BL/6 derived bone marrow (BM) cells with (or without) 1×10^6 allogeneic splenocytes.
(§2) Therapeutic administration of ibrutinib via drinking water was conducted as previously described (Dubovsky 2013). Mice received a dose equivalent to 15 mg/Kg/day in 0.4% methylcellulose by intraperitoneal injection starting day 28 post-transplant for the C57BL/6→B10.BR model. Cyclosporine A was administered I.P. in 0.2% CMC at 10 mg/kg/day starting at day 25 for 2-weeks followed by 3× weekly (Blazar, B. R. et al. Blood 92, 3949-3959 (1998)).

[2] = test system: C57BL/6→B10.BR cGVHD model; test: Masson trichrome staining of pulmonary collagen deposition / fibrosis in cGVHD model; assay type: in vivo, mouse
Protocol: as §1, §2
Masson Trichrome staining: 6 μm cryosections were fixed for 5 minutes in acetone and stained with hematoxylin and eosin to determine pathology and with the Masson's trichrome staining kit (Sigma) for detection of collagen deposition. Histopathology scores were assigned as described (Blazar, B. R. et al. Blood 92, 3949-3959 (1998)). Collagen deposition was quantified on trichrome stained sections as a ratio of area of blue staining to area of total staining using the Adobe Photoshop CS3 analysis tool.

[3] = test system: C57BL/6→B10.BR cGVHD model; test: Germinal center detection in spleen (PNA staining, flow cytometry of GC B-cells); assay type: in vivo, mouse
From the text: (§3) FIG. 4 exemplifies germinal center reactions and pulmonary immunoglobulin deposition are therapeutically abated with administration of ibrutinib. A) Germinal centers were imaged by staining 6 um spleen sections with PNA conjugated to rhodamine. B) Splenocytes were purified from transplanted mice on day 60 and frequency of germinal center B cells were quantified. C) 6 μm lung sections from day 60 transplanted mice were stained with anti-mouse Ig conjugated to FITC. D) quantified with Adobe Photoshop CS3.
as §1
Therapeutic administration of ibrutinib via drinking water was conducted as previously described (Dubovsky 2013). Mice received a dose equivalent to 15 mg/Kg/day in 0.4% methylcellulose by intraperitoneal injection starting day 28 post-transplant for the C57BL/6→B10.BR model. Cyclosporine A was administered I.P. in 0.2% CMC at 10 mg/kg/day starting at day 25 for 2-weeks followed by 3× weekly (Blazar, B. R. et al. Blood 92, 3949-3959 (1998)). […]

[4] = test system: C57BL/6→B10.BR cGVHD model; test: Overall survival of cGVHD mice (Kaplan Meier); assay type: in vivo, mouse; conditions: ibrutinib cohort; FIG. 2
Protocol: FIG. 2 exemplifies survival of cGVHD mice in C57BL/6→B10.BR model. Kaplan Meier plot of overall survival for bone marrow (BM) non-cGVHD mice, BM+splenocyte (S) engrafted cGVHD irrelevant vehicle treated mice, or Ibrutinib treated BM+S engrafted mice.
as §1, §2

[5] = test system: C57BL/6→B10.BR cGVHD model; test: Pulmonary immunoglobulin deposition (anti-mouse Ig FITC immunofluorescence of lung sections); assay type: in vivo; conditions: day 60 post-HSCT
From the text: as §3, §1, §2

[6] = test system: C57BL/6→B10.BR cGVHD model; test: Pulmonary function tests (PFTs) at day 60 in therapeutic allo-HSCT cGVHD/bronchiolitis obliterans model; assay type: in vivo, mouse
Protocol: To determine whether ibrutinib could reverse established cGVHD, a murine model of alloantibody driven multi-organ system cGVHD including bronchiolar obliterans (BO) (MHC disparate, C57BL/6→B10.BR) was utilized.
as §1, §2
Pulmonary function tests: Pulmonary function tests (PFTs) were performed on anesthetized mice using whole-body plehysmography with the Flexivent system (SCIREQ).

Structure (SMILES): C=CC(=O)N1CCC[C@@H](n2nc(-c3ccc(Oc4ccccc4)cc3)c3c(N)ncnc32)C1 [ibrutinib, (R)-1-(3-(4-amino-3-(4-phenoxyphenyl)-1H-pyrazolo[3,4-d]pyrimidin-1-yl)piperidin-1-yl)prop-2-en-1-one]
- mouse bodyweight, weekly evaluation [1]: little variation between groups
- peribronchiolar collagen fibrosis, Masson Trichrome staining of inflated pulmonary tissues ([2]; 4 mice from 3 experiments, representative images, FIG. 1D): less peribroncheolar collagen fibrosis
- lung and liver fibrosis (summary statement) ([2]; C57BL/6→B10.BR cGVHD model): reversed lung and liver fibrosis
- quantified trichrome staining (pulmonary fibrosis, ratio of blue area to total area) ([2]; p<0.0001, FIG. 1E): ameliorates pulmonary fibrosis caused by cGVHD
- GC reactions within the spleen (peanut agglutinin staining) ([3]; compared to vehicle treated mice with active cGVHD, FIG. 4A): reduced the overall size, cellularity, and number of GC reactions
- CD19+GL7+CD38lo germinal center B-cells within the spleen (flow cytometry) ([3]; day 60 post-HSCT, 8 mice per group, p=0.0222, FIG. 4B): significantly inhibited the cGVHD-induced formation germinal center B-cells
- survival [4]: 100%
- pulmonary deposition of allo-Ig (immunofluorescent microscopy) ([5]; FIG. 4C): limited pulmonary deposition of allo-Ig
- quantified immunofluorescent signal of pulmonary Ig deposition ([5]; p<0.001, FIG. 4D): significant and complete ablation of pulmonary Ig deposition
- pulmonary function (summary statement) ([6]; C57BL/6→B10.BR cGVHD model): restored pulmonary function
- development of BO as measured by pulmonary elastance ([6]; ibrutinib 15 mg/Kg/day from day 28 post-transplant, PFT day 60, p=0.0019, FIG. 1B): curtailed the development of BO in vivo
- development of BO as measured by pulmonary compliance ([6]; ibrutinib 15 mg/Kg/day from day 28 post-transplant, PFT day 60, p=0.0071, FIG. 1C): curtailed the development of BO in vivo
- development of BO as measured by pulmonary resistance ([6]; ibrutinib 15 mg/Kg/day from day 28 post-transplant, PFT day 60, p=0.0090, FIG. 1A): curtailed the development of BO in vivo
